The conditions of the data set: Crystal; visual observation.

Each structure is given as a SMILES string. Numbers after ± are expanded uncertainties.

As to `F[P-](F)(F)(F)(F)F.F[P-](F)(F)(F)(F)F.c1cc[n+](CCCCC[n+]2ccccc2)cc1` [1,1'-(1,5-pentanediyl)bis-pyridinium hexafluorophosphate], the Normal melting temperature is 198.40 ± 1.2 °C.

(Values after the NIST ThermoML archive (doi:10.1021/je900355h).)
